# Read-outs that look alike come from different tables or passages of the source.
# Assays:
# [1] = Phase 1a single ascending dose study (oral solution): plasma pharmacokinetics; format: in vivo; conditions: male, human; for AUC(0-t): read-out: AUClast, mean (SD); for Cmax: read-out: Cmax, mean (SD)
# Procedure: (§1) Compound 1 was administered as the HCl-salt (prepared analogously to Example 2.1).
# Placebo dosing solutions were identical to active, except without Compound 1. […] Since HPβCD concentration remained constant, subjects in Cohort 5 received twice the amount of HPβCD relative to subjects in Cohorts 1 to 4. Dosing, including consumption of rinse water, was completed within 3 minutes, administered in the morning after an overnight fast, and maintained for up to 4 hours after dosing.
# The secondary objective was to characterize the single-dose pharmacokinetic (PK) parameters of Compound 1 after ascending doses.
# Blood samples were collected at baseline, day 1 (0.5, 1, 2, 3, 4, 6, 8, 12, 16, 24 hours post dose), day 2 (30, 36 and 48 hours post dose) and day 8 follow-up visit. Analysis of plasma samples was performed using a validated Liquid Chromatography—Mass Spectrometry and Liquid Chromatography—Tandem Mass Spectrometry (LC-MS/MS) method.
# [2] = Phase 1a multiple ascending dose study (oral solution): plasma pharmacokinetics; format: in vivo, human; conditions: for concentration at 0.5 h: Hour 0.5; for concentration at 0.5 h / concentration at 1 h / concentration at 2 h / concentration at 3 h / concentration at 4 h / concentration at 6 h / concentration at 8 h / concentration at 12 h / concentration at 16 h / concentration at 24 h: read-out: Compound 1 concentration, Conc (SD); for concentration at 1 h: Hour 1; for concentration at 2 h: Hour 2; for concentration at 3 h: Hour 3; for concentration at 4 h: Hour 4; for concentration at 6 h: Hour 6; for concentration at 8 h: Hour 8; for concentration at 12 h: Hour 12; for concentration at 16 h: Hour 16; for concentration at 24 h: Hour 24
# Procedure: as §1
# The secondary objective was to characterize the multiple dose pharmacokinetic (PK) parameters of Compound 1, after ascending doses. Secondary endpoints included determination of PK parameters in plasma and urine, fecal excretion and assessment of colonic biopsy samples.
# Blood samples were collected at the following time points relative to dose administration on Day 1 and Day 7: pre-dose; 0.5, 1, 2, 3, 4, 6, 8, 12, 16 and 24 hours post dose. Analysis and concentration determinations were performed using a liquid chromatography-mass spectrometry and liquid chromatography-tandem mass spectrometry (LC/MS/MS) method.
# [3] = 20 mg, Cohort 1, 20 mg single oral dose (0.4 mg/mL, 50 mL)
# [4] = 60 mg, Cohort 2, 60 mg single oral dose (1.2 mg/mL, 50 mL)
# [5] = 120 mg, Cohort 3, 120 mg single oral dose (2.4 mg/mL, 50 mL)
# [6] = 240 mg, Cohort 4, 240 mg single oral dose (4.8 mg/mL, 50 mL)
# [7] = 240 mg, Cohort 5, 240 mg single oral dose (2.4 mg/mL, 100 mL)
# [8] = Cohort 1, 60 mg once daily, Day 7
# [9] = Cohort 2, 120 mg once daily, Day 7
# [10] = Cohort 3, 240 mg once daily, Day 7
# [11] = Cohort 4, 120 mg once daily, Day 7
# [12] = Cohort 5, 60 mg once daily, Day 7
# [13] = human, plasma, oral, 60 mg, Cohort 1, 60 mg once daily, Day 7
# [14] = human, plasma, oral, 60 mg, Cohort 1, 60 mg, Day 1
# [15] = human, plasma, oral, 60 mg, Cohort 5, 60 mg once daily, Day 7
# [16] = human, plasma, oral, 60 mg, Cohort 5, 60 mg, Day 1
structure (smiles),measurement,setting,value
"CC(C)(C)OC(=O)N1CCN(Cc2ccn(Cc3ccc(Cl)cc3)c(=O)c2O)CC1 [Compound 1, tert-butyl 4-((1-(4-chlorobenzyl)-3-hydroxy-2-oxo-1,2-dihydropyridin-4-yl)methyl)piperazine-1-carboxylate]",Tmax,[1]; [3],30 min
same,AUC(0-t),[1]; [3],10.7 ng·h/mL
same,Cmax,[1]; [3],2.06 ng/mL
same,Tmax,[1]; [4],30 min
same,AUC(0-t),[1]; [4],14.2 ng·h/mL
same,Cmax,[1]; [4],7.71 ng/mL
same,Tmax,[1]; [5],30 min
same,AUC(0-t),[1]; [5],32.3 ng·h/mL
same,Cmax,[1]; [5],12.4 ng/mL
same,Tmax,[1]; [6],30 min
same,AUC(0-t),[1]; [6],41.3 ng·h/mL
same,Cmax,[1]; [6],25 ng/mL
same,Tmax,[1]; [7],30 min
same,AUC(0-t),[1]; [7],79.5 ng·h/mL
same,Cmax,[1]; [7],30.7 ng/mL
same,Tmax,"[1]; single oral solution dose, healthy male subjects",< 60 min
same,Tmax,[1]; single oral solution formulation dose,30 min
same,"ARAUC (accumulation ratio of AUC), mean",[2]; [8],2.1
same,"ARCmax (accumulation ratio of Cmax), mean",[2]; [8],1.0
same,"Tmax, median (range)","[2]; Cohort 1, 60 mg, Day 1",0.5 (0.5-1.0) h
same,"ARAUC (accumulation ratio of AUC), mean",[2]; [9],1.8
same,"ARCmax (accumulation ratio of Cmax), mean",[2]; [9],1.2
same,"ARAUC (accumulation ratio of AUC), mean",[2]; [10],1.4
same,"ARCmax (accumulation ratio of Cmax), mean",[2]; [10],1.0
same,"ARAUC (accumulation ratio of AUC), mean",[2]; [11],2.3
same,"ARCmax (accumulation ratio of Cmax), mean",[2]; [11],1.3
same,"Tmax, median (range)","[2]; Cohort 4, 120 mg, Day 1",0.5 (0.5-1.0) h
same,"ARAUC (accumulation ratio of AUC), mean",[2]; [12],3.0
same,"ARCmax (accumulation ratio of Cmax), mean",[2]; [12],1.3
same,concentration at 0.5 h,[2]; [13],4.33 ng/mL
same,concentration at 1 h,[2]; [13],3.02 ng/mL
same,concentration at 2 h,[2]; [13],1.85 ng/mL
same,concentration at 3 h,[2]; [13],0 ng/mL
same,concentration at 4 h,[2]; [13],0 ng/mL
same,concentration at 6 h,[2]; [13],0 ng/mL
same,concentration at 8 h,[2]; [13],0 ng/mL
same,concentration at 12 h,[2]; [13],0 ng/mL
same,concentration at 16 h,[2]; [13],0 ng/mL
same,concentration at 24 h,[2]; [13],0 ng/mL
same,AUC(0-t),"[2]; human, plasma, oral, 60 mg, Cohort 1, 60 mg once daily, Day 7, read-out: AUC(0-t), mean",17 ng·h/mL
same,Cmax,"[2]; human, plasma, oral, 60 mg, Cohort 1, 60 mg once daily, Day 7, read-out: Cmax, mean",4.33 ng/mL
same,concentration at 0.5 h,[2]; [14],3.88 ng/mL
same,concentration at 1 h,[2]; [14],3.16 ng/mL
same,concentration at 4 h,[2]; [14],0 ng/mL
same,concentration at 6 h,[2]; [14],0 ng/mL
same,concentration at 8 h,[2]; [14],0 ng/mL
same,concentration at 12 h,[2]; [14],0 ng/mL
same,concentration at 16 h,[2]; [14],0 ng/mL
same,concentration at 24 h,[2]; [14],0 ng/mL
same,AUC(0-t),"[2]; human, plasma, oral, 60 mg, Cohort 1, 60 mg, Day 1, read-out: AUC(0-τ) column, AUClast is presented (footnote b), mean (SD)",5.32 ng·h/mL
same,Cmax,"[2]; human, plasma, oral, 60 mg, Cohort 1, 60 mg, Day 1, read-out: Cmax, mean (SD)",4.11 ng/mL
same,concentration at 0.5 h,[2]; [15],6.24 ng/mL
same,concentration at 1 h,[2]; [15],4.6 ng/mL
same,concentration at 2 h,[2]; [15],2.57 ng/mL
same,concentration at 3 h,[2]; [15],1.99 ng/mL
same,concentration at 4 h,[2]; [15],1.62 ng/mL
same,concentration at 6 h,[2]; [15],2.15 ng/mL
same,concentration at 8 h,[2]; [15],2 ng/mL
same,concentration at 12 h,[2]; [15],1.7 ng/mL
same,concentration at 16 h,[2]; [15],1.59 ng/mL
same,concentration at 24 h,[2]; [15],1.18 ng/mL
same,AUC(0-t),"[2]; human, plasma, oral, 60 mg, Cohort 5, 60 mg once daily, Day 7, read-out: AUC(0-t), mean",53.2 ng·h/mL
same,Cmax,"[2]; human, plasma, oral, 60 mg, Cohort 5, 60 mg once daily, Day 7, read-out: Cmax, mean",6.31 ng/mL
same,concentration at 0.5 h,[2]; [16],4.83 ng/mL
same,concentration at 1 h,[2]; [16],3.94 ng/mL
same,concentration at 3 h,[2]; [16],0 ng/mL
same,concentration at 4 h,[2]; [16],0 ng/mL
same,concentration at 6 h,[2]; [16],0 ng/mL
same,concentration at 8 h,[2]; [16],0 ng/mL
same,concentration at 12 h,[2]; [16],0 ng/mL
same,concentration at 16 h,[2]; [16],0 ng/mL
same,concentration at 24 h,[2]; [16],0 ng/mL
same,AUC,"[2]; human, plasma, oral, 60 mg, Cohort 5, 60 mg, Day 1, read-out: AUC(0-τ), mean (SD)",28.7 ng·h/mL
